Data from publication PMC9775191, “A Subset Screen of the Compounds Australia Scaffold Library Identifies 7-Acylaminodibenzoxazepinones as Potent and Selective Hits for Anti-Giardia Drug Discovery” (Biomedicines, 2022).

The compounds below were run on G. duodenalis BRIS/91/HEPU/1279 (assay: Primary Giardia screen at 10 µM (live-cell imaging, automated counting)). Settings: 24 h.
Assay type: cell-based, Giardia duodenalis
In short: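 Singlicate, 10 μM final, 0.2% DMSO; sealed chambers, 3% O2/5% CO2/N2. Counts by live-cell imaging at 24 h and 48 h. % growth vs vehicle, media background subtracted; Z' per plate.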

SMILES	Average % Inhibition 24h [%]
COc1ccc(Nc2nc(-c3nnn(-c4ccc(F)cc4F)c3C)ns2)cc1OC [SN00798157]	11.4
Cc1ccc(-c2nc(-c3cccc(-c4ccn[nH]4)c3)no2)cc1 [SN00798298]	6.3
CCc1nc(-c2cc(S(=O)(=O)NCc3ccc(F)c(Cl)c3)c(C)s2)cs1 [SN00798443]	15.2

Same assay, conditions: 24 h, first singlicate assay

SMILES	% Inhibition n=1 24h [%]
COc1ccc(Nc2nc(-c3nnn(-c4ccc(F)cc4F)c3C)ns2)cc1OC [SN00798157]	18.3
Cc1ccc(-c2nc(-c3cccc(-c4ccn[nH]4)c3)no2)cc1 [SN00798298]	9.4
CCc1nc(-c2cc(S(=O)(=O)NCc3ccc(F)c(Cl)c3)c(C)s2)cs1 [SN00798443]	16.9

Same assay, conditions: 24 h, re-assessment

SMILES	% Inhibition n=2 24h [%]
COc1ccc(Nc2nc(-c3nnn(-c4ccc(F)cc4F)c3C)ns2)cc1OC [SN00798157]	4.5
Cc1ccc(-c2nc(-c3cccc(-c4ccn[nH]4)c3)no2)cc1 [SN00798298]	3.2
CCc1nc(-c2cc(S(=O)(=O)NCc3ccc(F)c(Cl)c3)c(C)s2)cs1 [SN00798443]	13.6

Same assay, conditions: 48 h

SMILES	Average % Inhibition 48h [%]
COc1ccc(Nc2nc(-c3nnn(-c4ccc(F)cc4F)c3C)ns2)cc1OC [SN00798157]	26.3
Cc1ccc(-c2nc(-c3cccc(-c4ccn[nH]4)c3)no2)cc1 [SN00798298]	41.5
CCc1nc(-c2cc(S(=O)(=O)NCc3ccc(F)c(Cl)c3)c(C)s2)cs1 [SN00798443]	43.8

Same assay, conditions: 48 h, first singlicate assay

SMILES	% Inhibition n=1 48h [%]
CC1CCC(NC(=O)c2ccc(-c3noc(C4CCN(C(=O)c5ccccc5)CC4)n3)cc2)CC1 (stereo not drawn) [SN00797379]	0.0
COc1ccc(CNC(=O)c2ccc(-c3noc(C4CCCN(C(=O)c5ccccc5)C4)n3)cc2)cc1 (stereo not drawn) [SN00797402]	14.7
Cc1ccc(NC(=O)c2ccc(-c3noc(C4CCCN(C(=O)c5ccccc5)C4)n3)cc2)cc1 (stereo not drawn) [SN00797407]	5.6
Cc1ccc(N2CC(C(=O)N3CCCC3c3nc(-c4cccc(C)c4)no3)CC2=O)cc1 (stereo not drawn) [SN00797413]	0.0
Cc1ccc(C(=O)N2CCCC2c2nc(-c3cccc(C)c3)no2)cc1 (stereo not drawn) [SN00797416]	0.0
O=C(NCCc1ccccc1)N1CCCC1c1nc(-c2ccccc2)no1 (stereo not drawn) [SN00797440]	0.0
Cc1cccc(-c2noc(C3CCCN3S(=O)(=O)c3ccc(C(C)(C)C)cc3)n2)c1 (stereo not drawn) [SN00797487]	0.0
Cc1cccc(-c2noc(C3CCCN3S(=O)(=O)c3cc(C)c(C)cc3C)n2)c1 (stereo not drawn) [SN00797488]	0.0
CCCNC(=O)Cn1cccc1-c1nc(-c2ccc(Cl)cc2)cs1 [SN00797520]	24.8
COc1ccc(CNS(=O)(=O)c2ccc3onc(C(=O)N4CCCCC4)c3c2)cc1OC [SN00797555]	0.0
COc1ccc(OC)c(NC(=O)C2CC(=O)N(c3cccc(NC(C)=O)c3)C2)c1 (stereo not drawn) [SN00797576]	0.0
O=C(Nc1ccc2sc(NS(=O)(=O)c3ccccc3)nc2c1)Nc1ccccc1Cl [SN00797595]	4.6
O=C(NCC1CCCO1)Nc1ccc2sc(NS(=O)(=O)c3ccccc3)nc2c1 (stereo not drawn) [SN00797600]	23.5
COc1ccc(CNC(=O)c2sc(Nc3ccc(F)cn3)nc2C)cc1 [SN00797617]	12.4
Cc1ccnc(Nc2nc(C)c(C(=O)NC3CC3)s2)c1 [SN00797622]	13.3
COc1ccc(CCNS(=O)(=O)c2cccc(-c3nc(-c4ccc(C)cc4)no3)c2)cc1OC [SN00797669]	6.7
Cc1ccc(-c2noc(-c3cccc(S(=O)(=O)N4CCN(c5ccc(F)cc5)CC4)c3)n2)cc1 [SN00797676]	0.0
Cc1ccc(-c2nnc(-c3cccnc3N3CCCC3)o2)cc1 [SN00797693]	0.0
COc1ccc(-c2nnc(-c3cccnc3N3CCN(C(=O)c4cccc(OC)c4)CC3)o2)cc1 [SN00797707]	2.3
CCCOc1ccc(-c2noc(Cc3nc(-c4cccc(OC)c4)cs3)n2)cc1 [SN00797723]	4.6
COc1ccc2cc(-c3csc(Cc4nc(-c5ccccn5)no4)n3)c(=O)oc2c1 [SN00797738]	2.5
NC(=O)C1CCN(C(=O)c2snc(C(=O)NCc3ccccc3)c2N)CC1 [SN00797750]	8.9
COc1cccc(CNC(=O)c2nsc(C(=O)NCc3ccccc3F)c2N)c1 [SN00797759]	13.9
CCCCOc1ccc(CNC(=O)C2CCN(c3nccc4sc(C)cc34)CC2)cc1 [SN00797785]	27.9
Cn1ccc2c(cc(C(=O)N3CCC(N4CCCCC4)CC3)n2C)c1=O [SN00797819]	18.7

SMILES	% Inhibition n=1 48h [%]
Cc1ccc(NC(=O)c2cc3c(=O)n(CC(C)C)ccc3n2C)cc1 [SN00797828]	17.5
CCC(C)NC(=O)c1cc2c(=O)n(Cc3ccccc3)ccc2s1 (stereo not drawn) [SN00797832]	11.3
COc1ccc(CNC(=O)c2cc3c(=O)n(Cc4ccccc4)ccc3s2)cc1 [SN00797837]	0.0
COc1cccc(CNC(=O)Cn2ccc3sccc3c2=O)c1 [SN00797886]	6.6
COc1ccccc1OCCNC(=O)Cn1ccc2c(c(C)nn2-c2ccccc2)c1=O [SN00797916]	27.1
CCS(=O)(=O)c1nc2ccc(NS(=O)(=O)c3ccc4c(c3)OCCO4)cc2s1 [SN00797922]	0.0
CCCS(=O)(=O)c1nc2ccc(NS(=O)(=O)CCc3ccccc3)cc2s1 [SN00797950]	20.2
COc1cccc(CNC(=O)C2CCCN(c3nccc4c(C)nn(C)c34)C2)c1 (stereo not drawn) [SN00797953]	0.0
COc1cccc(Cn2nc3c(S(=O)(=O)N4CCOCC4)cccn3c2=O)c1 [SN00798018]	4.9
O=c1n(Cc2cccc(Br)c2)nc2c(S(=O)(=O)N3CCOCC3)cccn12 [SN00798020]	0.0
CCc1ccc(-n2ccc(=O)c(-c3nc(-c4cccc(Cl)c4)no3)n2)cc1 [SN00798039]	4.9
Cc1cccc(-c2cc(N3CCN(C(=O)c4cc(Cl)ccc4F)CC3)ncn2)c1 [SN00798065]	47.1
Cc1ccc(-c2noc(-c3cccn4c(=O)n(CC(=O)Nc5cc(C)ccc5C)nc34)n2)cc1 [SN00798102]	23.0
COc1ccc(-n2nnc(-c3nsc(Nc4ccc(Cl)cc4)n3)c2C)cc1 [SN00798137]	11.6
COc1ccc(Nc2nc(-c3nnn(-c4ccc(F)cc4F)c3C)ns2)cc1OC [SN00798157]	52.7
CCc1ccc(CNC(=O)c2cc3ccncc3n2C)cc1 [SN00798182]	20.1
CC(NC(=O)c1cc2ccncc2[nH]1)c1ccccc1 (stereo not drawn) [SN00798186]	4.2
COc1ccc(OC)c(CNC(=O)c2ccc3[nH]c4c(c3c2)CN(C(C)=O)CC4)c1 [SN00798195]	0.0
O=C(NCCc1ccccn1)c1ccc2[nH]c3c(c2c1)CN(C(=O)C1CCC1)CC3 [SN00798214]	0.0
CCN1CCc2[nH]c3ccc(NC(=O)c4ccn(CC)n4)cc3c2C1 [SN00798224]	1.1
COC(=O)c1ccccc1NC(=O)Nc1ccc2[nH]c3c(c2c1)CN(C(C)C)CC3 [SN00798231]	4.3
CNC(=O)N1CCC(c2nc(C)c(C(=O)NCCCOC)s2)CC1 [SN00798240]	6.4
Cc1nc(C2CCN(C(=O)Nc3ccccc3)CC2)sc1C(=O)N1CCCCCC1 [SN00798241]	0.0
Cc1ccc(-c2nc(-c3cccc(-c4ccn[nH]4)c3)no2)cc1 [SN00798298]	55.6
Cc1cc(-c2cc(S(=O)(=O)N(CCN(C)C)Cc3cccs3)c(C)s2)[nH]n1 [SN00798340]	13.6

SMILES	% Inhibition n=1 48h [%]
Cc1nc(-c2ccc3c(c2)n(CC(=O)NC2CCN(Cc4ccccc4)CC2)c(=O)n3C(C)C)no1 [SN00798376]	5.7
Cc1nnc(-c2ccc3ccn(CC(=O)NC4CC4)c3c2)o1 [SN00798392]	0.0
CCc1nc(-c2cc(S(=O)(=O)NCc3ccc(F)c(Cl)c3)c(C)s2)cs1 [SN00798443]	50.2
COc1ccc(C(=O)Nc2cc(-c3nc(C)cs3)sc2C)cc1OC [SN00798474]	27.2
COc1ccc(-c2nc(CS(=O)(=O)c3ccc(C)cc3)no2)c(C)c1 [SN00798481]	11.0
Cc1sc2cc(C(=O)NC(C)(C)C)[nH]c2c1CN1CCOCC1 [SN00798503]	2.4
Cc1sc2cc(C(=O)N3CCN(c4ccc(F)cc4)CC3)[nH]c2c1CN1CCOCC1 [SN00798508]	27.9
COc1ccc(CNC(=O)c2[nH]c3cc(C)sc3c2CN2CCCC2)cc1 [SN00798517]	35.5
CC(C)Cn1cc2c3c(cccc31)CN(C(=O)Cc1cccs1)CC2 [SN00798552]	35.1
COCCn1cc2c3c(cccc31)CN(C(=O)c1cccc(Cl)c1)CC2 [SN00798558]	26.2
Cn1cc2c3c(cccc31)CN(C(=O)NC(C)(C)C)CC2 [SN00798578]	7.2
COCCn1cc2c3c(cccc31)CN(C(=O)Nc1ccccc1F)CC2 [SN00798581]	22.0
Cc1nnc(-c2cc(NS(=O)(=O)c3ccc(Cl)cc3)c(C)s2)o1 [SN00798629]	2.8
COc1ccccc1-c1nc(C2CCCN(C(=O)c3ccc(C(C)C)cc3)C2)no1 (stereo not drawn) [SN00798647]	0.0
Cc1cc(C)cc(C(=O)NCc2ccc3c(c2)nnn3C)c1 [SN00798663]	0.0
Cn1nnc2cc(CNC(=O)c3ccc(F)cc3)ccc21 [SN00798670]	3.3
CCCNC(=O)c1cn(C)nc1S(=O)(=O)N1CCC(C)CC1 [SN00798692]	3.5
CCn1cc(C(=O)Nc2ccc(F)cc2)c(S(=O)(=O)N2CCC(C)CC2)n1 [SN00798700]	0.0
CCOC(=O)c1ccc(NC(=O)Cn2c(=O)cc(-c3nc(C)no3)c3ccccc32)cc1 [SN00798707]	2.1
CC(C)c1noc(-c2cc(=O)n(CC(=O)N3CCCC3)c3ccccc23)n1 [SN00798718]	0.0
Nc1nc(N2CCN(C(=O)c3ccco3)CC2)ncc1C(=O)Nc1ccccc1 [SN00798744]	0.0
COc1ccc(NC(=O)c2cnc(N3CCN(CC(=O)N4CCCC4)CC3)nc2N)cc1 [SN00798764]	0.0
O=S(=O)(c1cccs1)N1CCc2[nH]cnc2C1 [SN00798784]	0.0
Cc1cc(C)c(S(=O)(=O)N2CCc3[nH]cnc3C2)cc1C [SN00798786]	0.0
COc1c(C(=O)Nc2ccccc2)oc2ccc(NC(=O)C3CCCCC3)cc12 [SN00798797]	3.8

Same assay, conditions: 48 h, re-assessment

SMILES	% Inhibition n=2 48h [%]
COc1ccc(Nc2nc(-c3nnn(-c4ccc(F)cc4F)c3C)ns2)cc1OC [SN00798157]	0.0
Cc1ccc(-c2nc(-c3cccc(-c4ccn[nH]4)c3)no2)cc1 [SN00798298]	27.4
CCc1nc(-c2cc(S(=O)(=O)NCc3ccc(F)c(Cl)c3)c(C)s2)cs1 [SN00798443]	37.5
